pIC50: −log10 of the molar value. Where a name gives a salt, the structure may show the parent alone. Marks after values point to notes of the source that are not given here.
Experiments:
[1] = molecular target: T1, Thrombin (from human plasma) (Homo sapiens, UniProt P00734); experiment: on-chip thrombin inhibition assay (S-2238 hydrolysis, absorbance 405 nm); assay type: biochemical; conditions: for thrombin
T1 construct: Thrombin (from human plasma); purchased Sigma-Aldrich; host or cells: human plasma
Protocol: To enhance the performance of the on-chip assay, experimental parameters such as concentrations of enzymes and substrates, substrate reaction time, and incubation time of samples and enzymes were stepwise optimized. The activity of thrombin was determined by measuring the hydrolysis of chromogenic substrate S-2238 (HD-Phe-Pip-Arg-pNA) at 405 nm. As depicted in Fig. 2a, the absorbance increased rapidly along with the elevated concentrations of thrombin, while it reached a plateau at 0.5 U/mL. […] Moreover, it was clear from Fig. 2d that the maximum inhibitory effect of QSYQ sample (I1 of Table 1 in this assay) on thrombin was observed after 60 min of incubation. Therefore, to achieve favorable response and prevent signal saturation, optimal assay conditions for thrombin were determined to be 0.2 U/mL, 0.31 mM, 30 min and 60 min for the final concentrations of thrombin and S-2238, substrate reaction time and incubation time, respectively. […] In this assay, the concentrations of ACE and FAPGG were finally set at 0.027 U/mL and 0.72 mM, where the background value was lower and the reaction time was relatively shorter (30 min).
The optimized protocol was first applied to assess the quality of 11 batches of QSYQ intermediates (Table 1). Enzyme inhibition (in percentages) was employed as an indicator of drug quality and calculated according to the following equations: thrombin inhibition (%) = [1 − (AQSYQ/Ablank)] × 100; ACE inhibition (%) = [1 − (ΔAQSYQ/ΔAblank)] × 100; where AQSYQ and Ablank were the absorbance of the test sample and the blank sample after the enzymatic reaction (the background value was subtracted), and ΔAQSYQ and ΔAblank were the absorbance decrease between 0 min and 30 min of the samples. A scatter plot was generated to display the inhibition result of thrombin and ACE simultaneously. […] Moreover, artificial abnormal samples I6, I7 and I8, each with one abnormal (pre-extracted) herb, presented relatively lower inhibitions compared with I1.
Thrombin (from human plasma), ACE (from rabbit lung), FAPGG and captopril were purchased from Sigma-Aldrich (St. Louis, USA). S-2238 was obtained from Aglyco (Beijing, China). AEBSF-HCl was purchased from Selleckchem (Houston, USA). Trizma base (Tris) was obtained from Sangon Biotech (Shanghai, China) and dimethyl sulfoxide (DMSO) from J&K Scientific (Beijing, China). All other chemicals were purchased from Sinopharm Chemical (Shanghai, China) unless otherwise indicated. 0.2 M Phosphate buffer (PB, pH 6.5), and 50 mM Tris-HCl buffer (200 mM NaCl, pH 8.3) were prepared as assay buffers for thrombin and ACE, respectively.
MBs (10 mg/mL) were diluted 10 times in PB or Tris-HCl buffer, and 10 μL of the diluted MBs (1 mg/mL) were injected into one channel of the chip using a syringe infusion pump (Harvard Apparatus, USA) and retained by an external magnet. Then, 10 μL of thrombin or ACE solution was added and incubated with MBs for two hours at room temperature to form enzyme-MB complexes. The magnet was manually controlled to move MBs back and forth to enhance the ratio of reaction. Subsequently, MBs were washed twice in assay buffer and magnetically transferred to the other channel through the fluidic bridge, whose opening and closing was controlled by a pneumatic valve. Next, 10 μL of sample solutions of tested drug and 10 μL of enzymatic substrate were sequentially infused to the channel by the pump and incubated with the enzyme. When the enzymatic reaction was finished, the MBs were retained in the channel, and air was injected into the channel from the inlet using a syringe to push all the reacted solution to a 384-well plate. The absorbance of the solution was then monitored at 405 nm (for S-2238) or 340 nm (for FAPGG) using an Infinite F200 spectrophotometer (Tecan, Männedorf, Switzerland). Moreover, after detection, the reaction channel was washed three times by assay buffer to remove unbound constituents. […]

ACE (from rabbit lung) [2] = molecular target: T2, ACE (from rabbit lung) (Oryctolagus cuniculus, UniProt P12822); experiment: on-chip ACE inhibition assay (FAPGG hydrolysis, absorbance decrease 340 nm); assay type: biochemical; set-up: key to IC50 (μM) or inhibition rate: /: No obvious inhibition observed; conditions: for IC50 (μM) or inhibition rate: symbol / = no obvious inhibition
T2 construct: ACE (from rabbit lung); purchased Sigma-Aldrich; host or cells: rabbit lung
T2 sequence (P12822 34-1310): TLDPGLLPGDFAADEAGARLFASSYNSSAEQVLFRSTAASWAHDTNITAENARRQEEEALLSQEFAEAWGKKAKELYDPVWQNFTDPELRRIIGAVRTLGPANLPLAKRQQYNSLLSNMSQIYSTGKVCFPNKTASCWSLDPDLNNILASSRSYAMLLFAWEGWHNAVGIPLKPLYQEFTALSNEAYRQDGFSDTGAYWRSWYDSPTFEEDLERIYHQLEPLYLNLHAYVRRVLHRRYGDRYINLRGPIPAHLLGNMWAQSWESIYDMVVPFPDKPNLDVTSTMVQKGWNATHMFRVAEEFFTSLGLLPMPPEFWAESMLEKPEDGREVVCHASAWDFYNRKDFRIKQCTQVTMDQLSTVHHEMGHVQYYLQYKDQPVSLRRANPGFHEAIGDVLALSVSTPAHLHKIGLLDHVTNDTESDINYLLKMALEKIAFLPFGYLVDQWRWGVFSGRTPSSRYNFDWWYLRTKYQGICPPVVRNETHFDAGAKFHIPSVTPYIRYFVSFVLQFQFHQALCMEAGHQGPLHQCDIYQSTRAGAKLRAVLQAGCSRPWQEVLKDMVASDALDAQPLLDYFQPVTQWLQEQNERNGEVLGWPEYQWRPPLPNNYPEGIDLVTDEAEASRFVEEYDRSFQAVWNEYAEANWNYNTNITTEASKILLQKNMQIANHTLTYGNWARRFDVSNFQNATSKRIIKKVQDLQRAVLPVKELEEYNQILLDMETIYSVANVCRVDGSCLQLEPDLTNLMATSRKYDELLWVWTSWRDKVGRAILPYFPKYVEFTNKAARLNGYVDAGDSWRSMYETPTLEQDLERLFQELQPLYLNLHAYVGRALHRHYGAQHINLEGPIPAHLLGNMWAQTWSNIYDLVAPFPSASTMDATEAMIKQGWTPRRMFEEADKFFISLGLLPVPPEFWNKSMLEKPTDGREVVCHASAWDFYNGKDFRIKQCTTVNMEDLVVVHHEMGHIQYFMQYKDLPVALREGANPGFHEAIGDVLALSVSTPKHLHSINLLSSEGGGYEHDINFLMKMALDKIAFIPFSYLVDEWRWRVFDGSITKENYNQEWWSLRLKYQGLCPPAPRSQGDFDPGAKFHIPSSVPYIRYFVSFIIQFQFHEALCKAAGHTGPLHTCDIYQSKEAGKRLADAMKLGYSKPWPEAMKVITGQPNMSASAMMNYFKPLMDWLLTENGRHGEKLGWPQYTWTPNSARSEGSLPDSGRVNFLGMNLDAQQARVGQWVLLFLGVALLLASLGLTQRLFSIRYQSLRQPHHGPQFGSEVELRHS
Protocol: To enhance the performance of the on-chip assay, experimental parameters such as concentrations of enzymes and substrates, substrate reaction time, and incubation time of samples and enzymes were stepwise optimized.
The optimized protocol was first applied to assess the quality of 11 batches of QSYQ intermediates (Table 1). Enzyme inhibition (in percentages) was employed as an indicator of drug quality and calculated according to the following equations: thrombin inhibition (%) = [1 − (AQSYQ/Ablank)] × 100; ACE inhibition (%) = [1 − (ΔAQSYQ/ΔAblank)] × 100; where AQSYQ and Ablank were the absorbance of the test sample and the blank sample after the enzymatic reaction (the background value was subtracted), and ΔAQSYQ and ΔAblank were the absorbance decrease between 0 min and 30 min of the samples.
Thrombin (from human plasma), ACE (from rabbit lung), FAPGG and captopril were purchased from Sigma-Aldrich (St. Louis, USA). […] AEBSF-HCl was purchased from Selleckchem (Houston, USA). Trizma base (Tris) was obtained from Sangon Biotech (Shanghai, China) and dimethyl sulfoxide (DMSO) from J&K Scientific (Beijing, China). All other chemicals were purchased from Sinopharm Chemical (Shanghai, China) unless otherwise indicated. 0.2 M Phosphate buffer (PB, pH 6.5), and 50 mM Tris-HCl buffer (200 mM NaCl, pH 8.3) were prepared as assay buffers for thrombin and ACE, respectively.
MBs (10 mg/mL) were diluted 10 times in PB or Tris-HCl buffer, and 10 μL of the diluted MBs (1 mg/mL) were injected into one channel of the chip using a syringe infusion pump (Harvard Apparatus, USA) and retained by an external magnet. Then, 10 μL of thrombin or ACE solution was added and incubated with MBs for two hours at room temperature to form enzyme-MB complexes. The magnet was manually controlled to move MBs back and forth to enhance the ratio of reaction. Subsequently, MBs were washed twice in assay buffer and magnetically transferred to the other channel through the fluidic bridge, whose opening and closing was controlled by a pneumatic valve. Next, 10 μL of sample solutions of tested drug and 10 μL of enzymatic substrate were sequentially infused to the channel by the pump and incubated with the enzyme. When the enzymatic reaction was finished, the MBs were retained in the channel, and air was injected into the channel from the inlet using a syringe to push all the reacted solution to a 384-well plate. […] Moreover, after detection, the reaction channel was washed three times by assay buffer to remove unbound constituents. 20 μL of 80% aqueous methanol was then injected and incubated with MBs for one hour to dissociate the bound constituents. The resulting solutions of replicates were combined, evaporated by a centrifugal evaporator, reconstituted in 80% aqueous methanol, centrifuged at 10,000 rpm for 10 min, and analyzed by LC-MS for chemical identification.

ACE (from rabbit lung) [3] = molecular target: T2, ACE (from rabbit lung); experiment: on-chip affinity screening, binding degree by LC-MS peak area vs protein-free control (ACE); conditions: for ACE; [(As − Ac)/As] × 100, sample vs protein-free control, EIC peak area
Excerpt: In addition to quality assessment, the microfluidic chip can also function as “affinity chromatography” to identify bioactive constituents from botanical drugs in a convenient and efficient manner. After the bioassay, the bound phytochemicals were dissociated from the enzymes and accurately identified by LC-MS. The material used for the chambers in microfluidic system, polydimethylsiloxane (PDMS), is apt to adsorb small molecules nonspecifically, thus a protein-free control was applied to reflect the degree of nonspecific binding of compounds to the chip. Peak areas were obtained from the extracted ion chromatography (EIC) in an ion-trap mass spectrometry (IT-MS), and binding degree (binding degree % = [(As − Ac)/As] × 100, where As and Ac were the peak area in the sample and control, respectively) was calculated to indicate binding specificity. […] All these peaks were unambiguously confirmed via comparisons with chemical standards in terms of retention time and mass spectra (Table 2), and five thrombin inhibitors (danshensu, salvianolic acid B, salvianolic acid C, rosmarinic acid and ginsenoside Rg1) and six ACE inhibitors (astragaloside IV, ononin, formononetin, calycosin, danshensu and salvianolic acid B) were preliminarily identified. […] Enzyme inhibition assays of these hit compounds were then performed to verify the screening results. […] Compounds showing an inhibition rate over 70% were subjected to IC50 measurement.
MBs (10 mg/mL) were diluted 10 times in PB or Tris-HCl buffer, and 10 μL of the diluted MBs (1 mg/mL) were injected into one channel of the chip using a syringe infusion pump (Harvard Apparatus, USA) and retained by an external magnet. Then, 10 μL of thrombin or ACE solution was added and incubated with MBs for two hours at room temperature to form enzyme-MB complexes. The magnet was manually controlled to move MBs back and forth to enhance the ratio of reaction. Subsequently, MBs were washed twice in assay buffer and magnetically transferred to the other channel through the fluidic bridge, whose opening and closing was controlled by a pneumatic valve. Next, 10 μL of sample solutions of tested drug and 10 μL of enzymatic substrate were sequentially infused to the channel by the pump and incubated with the enzyme. When the enzymatic reaction was finished, the MBs were retained in the channel, and air was injected into the channel from the inlet using a syringe to push all the reacted solution to a 384-well plate. The absorbance of the solution was then monitored at 405 nm (for S-2238) or 340 nm (for FAPGG) using an Infinite F200 spectrophotometer (Tecan, Männedorf, Switzerland). Moreover, after detection, the reaction channel was washed three times by assay buffer to remove unbound constituents. 20 μL of 80% aqueous methanol was then injected and incubated with MBs for one hour to dissociate the bound constituents. The resulting solutions of replicates were combined, evaporated by a centrifugal evaporator, reconstituted in 80% aqueous methanol, centrifuged at 10,000 rpm for 10 min, and analyzed by LC-MS for chemical identification.
An Agilent 1100 HPLC system (Agilent Technologies, Waldbronn, Germany) coupled with an LCQ Deca XP^plus IT-MS (Thermo Finnigan, San Jose, CA, USA) equipped with an electrospray ionization (ESI) interface was employed for structure elucidation of the bounded constituents. The analysis was performed in negative ionization mode under following operation parameters: scan range m/z 100–1500; capillary voltage −15 V; source voltage −3 kV; capillary temperature 350 °C; sheath gas (N2) 60 arb; auxiliary gas (N2) 20 arb.

| IC50 (μM) or inhibition rate (ACE (from rabbit lung) [2]; for ACE) | Binding degree (%) (ACE (from rabbit lung) [3]) | ACE inhibition (in words) (ACE (from rabbit lung) [2]; at tested concentrations) | inhibition rate (ACE (from rabbit lung) [2]; for ACE, maximum inhibition rate observed in the assay) [%^d] | Compound | pIC50 [1] |
| --- | --- | --- | --- | --- | --- |
| /^g | 19.1^d % |  |  | COc1ccc(-c2coc3cc(O)ccc3c2=O)cc1O [Calycosin] |  |
|  | 52.6^d % | showed ACE inhibitions | 30.6 | COc1ccc(-c2coc3cc(O[C@@H]4O[C@H](CO)[C@@H](O)[C@H](O)[C@H]4O)ccc3c2=O)cc1 [Ononin] |  |

Second part, the molecule before the results:

| Compound | IC50 (μM) or inhibition rate (ACE (from rabbit lung) [2]; for ACE) | Binding degree (%) (ACE (from rabbit lung) [3]) | ACE inhibition (in words) (ACE (from rabbit lung) [2]; at tested concentrations) | inhibition rate (ACE (from rabbit lung) [2]; for ACE, maximum inhibition rate observed in the assay) [%^d] | pIC50 [1] |
| --- | --- | --- | --- | --- | --- |
| NCCc1ccc(S(=O)(=O)F)cc1 [AEBSF-HCl, reference compound] |  |  |  |  | 5.41 |
| CC(C)(O)[C@@H]1CC[C@](C)([C@H]2[C@@H](O)C[C@@]3(C)[C@@H]4C[C@H](O[C@@H]5O[C@H](CO)[C@@H](O)[C@H](O)[C@H]5O)[C@H]5C(C)(C)[C@@H](O[C@@H]6OC[C@@H](O)[C@H](O)[C@H]6O)CC[C@@]56C[C@@]46CC[C@]23C)O1 [Astragaloside IV] | /^g | 28.3^d % |  |  |  |
| COc1ccc(-c2coc3cc(O)ccc3c2=O)cc1 [Formononetin] | /^g | 53.8^d % |  |  |  |

From publication PMC5612938, “A multiple biomarker assay for quality assessment of botanical drugs using a versatile microfluidic chip” (Scientific Reports, 2017)
